Reference: BindingDB's records for PubMed 11408545 (Glaxosmithkline, 2001)
Several values for one entry are separate records, joined by “and”; a condition that tells them apart may be missing. Equal values may be shown once.

Key:
[1] = target: T1, Alpha-2A adrenergic receptor [16-465] (Rattus norvegicus, UniProt P22909)
T1 construct: 16-465
T1 sequence (P22909 whole entry): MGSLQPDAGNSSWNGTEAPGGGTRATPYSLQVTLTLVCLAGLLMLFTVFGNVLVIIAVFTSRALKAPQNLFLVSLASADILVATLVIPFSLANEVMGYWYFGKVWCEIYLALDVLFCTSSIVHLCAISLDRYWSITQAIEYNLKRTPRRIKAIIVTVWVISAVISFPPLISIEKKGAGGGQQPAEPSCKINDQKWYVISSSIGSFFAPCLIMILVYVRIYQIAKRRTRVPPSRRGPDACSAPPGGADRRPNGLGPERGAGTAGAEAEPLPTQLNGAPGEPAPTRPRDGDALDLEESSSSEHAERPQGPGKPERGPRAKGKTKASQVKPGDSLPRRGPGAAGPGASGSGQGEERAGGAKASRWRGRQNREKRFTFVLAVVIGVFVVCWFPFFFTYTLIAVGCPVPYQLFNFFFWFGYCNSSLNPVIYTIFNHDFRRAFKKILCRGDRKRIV

[2] = target: T2, Alpha-2B adrenergic receptor (Oryctolagus cuniculus, UniProt O77830)
T2 sequence (O77830 whole entry): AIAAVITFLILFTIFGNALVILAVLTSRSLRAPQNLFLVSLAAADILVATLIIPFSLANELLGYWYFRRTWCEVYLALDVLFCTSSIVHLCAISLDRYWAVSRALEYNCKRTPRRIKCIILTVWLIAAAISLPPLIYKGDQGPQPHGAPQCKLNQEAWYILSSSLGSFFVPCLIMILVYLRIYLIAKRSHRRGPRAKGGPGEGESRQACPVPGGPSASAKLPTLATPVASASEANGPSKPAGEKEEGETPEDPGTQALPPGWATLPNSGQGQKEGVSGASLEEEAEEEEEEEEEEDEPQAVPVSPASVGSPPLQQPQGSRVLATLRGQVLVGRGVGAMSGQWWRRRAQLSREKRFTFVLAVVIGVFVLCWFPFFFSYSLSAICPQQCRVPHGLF

[3] = target: T3, Alpha-2A adrenergic receptor (Homo sapiens, UniProt P08913)
T3 sequence (P08913 whole entry): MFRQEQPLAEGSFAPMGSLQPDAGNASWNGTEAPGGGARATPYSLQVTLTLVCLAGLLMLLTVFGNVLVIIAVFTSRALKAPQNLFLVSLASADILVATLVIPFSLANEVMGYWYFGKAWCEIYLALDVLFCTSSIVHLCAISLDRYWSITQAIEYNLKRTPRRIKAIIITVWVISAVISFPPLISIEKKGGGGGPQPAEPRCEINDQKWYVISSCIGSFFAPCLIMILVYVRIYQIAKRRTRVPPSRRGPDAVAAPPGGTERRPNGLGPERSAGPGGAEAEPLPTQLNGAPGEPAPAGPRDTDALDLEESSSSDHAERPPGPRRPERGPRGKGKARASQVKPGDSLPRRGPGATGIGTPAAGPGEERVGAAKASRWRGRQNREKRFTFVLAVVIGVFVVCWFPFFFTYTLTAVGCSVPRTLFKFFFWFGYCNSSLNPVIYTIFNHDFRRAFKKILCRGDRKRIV

| Structure (SMILES) | Ki [1] [nM] | Ki [2] | Ki [3] [nM] |
| --- | --- | --- | --- |
| O=C1NCN(c2ccccc2)C12CCN(CC1COc3ccccc3O1)CC2 (stereo not given) [8-(2,3-Dihydro-benzo[1,4]dioxin-2-ylmethyl)-1-phenyl-1,3,8-triaza-spiro[4.5]decan-4-one] | 92 | 169 nM and 129 nM | 28.3 |
| COC(=O)C1=COC(C)C2CN3CCc4c([nH]c5ccccc45)C3CC12 (stereo not given) [Ajmalicine] | 1470 | 376 nM and 429 nM | 47.6 |
| CN1C[C@H](Cn2ccnc2-c2ccccc2)C[C@@H]2c3cccc4[nH]c(Br)c(c34)C[C@H]21 [BAM-1303] | 313 | 95.3 nM and 46 nM | 18.1 |
| COc1ccccc1N1CCN(CCC2C(=O)c3ccccc3C(C)(C)C2=O)CC1 (stereo not given) [NSC_122211] | 484 | > 10000 nM | 373 |
| COc1cccc(OC)c1OCCNCC1Oc2ccccc2OC1c1ccccc1 (stereo not given) [NSC_185453] | 142 | 5.3 nM and 11.8 nM | 3.5 |
| NCC(O)c1ccc(O)c(O)c1 (stereo not drawn) [Noradrenaline,(+)] | – | 284 nM and 57 nM | – |
| COC1(C2=NCCN2)COc2ccccc2O1 (stereo not given) [RX821002] | 0.95 | 7.3 nM and 6.4 nM | – |
| CC(C)=CCOc1ccc(Cl)c2c1CCN(C)CC2 [SK&F-104078] | 244 | 292 nM and 191 nM | 30.4 |
| Cc1ccc(N(CC2=NCCN2)c2cccc(O)c2)cc1 [SMR000059054] | – | 24.1 nM and 18.4 nM | – |
| Cc1cc(C(C)(C)C)c(O)c(C)c1CC1=NCCN1 [SMR000059324] | – | 6.3 nM and 4.5 nM | – |
| CN(C)CCCN1c2ccccc2Sc2ccc(Cl)cc21 [[3-(2-Chloro-phenothiazin-10-yl)-propyl]-dimethyl-amine(Chlorpromazine)] | – | 2690 nM and 3130 nM | – |
| COc1cc2nc(N3CCN(C(=O)c4ccco4)CC3)nc(N)c2cc1OC [[3H]-Minipress] | – | > 10000 nM | – |
